Measured values: PMC10576086, “Characterization of the horse chestnut genome reveals the evolution of aescin and aesculin biosynthesis” (Nature Communications, 2023)

Key:
[1] = system: T1, AcUGT84A56; assay: HPLC glucosyltransferase kinetics; assay type: biochemical, Aesculus chinensis; settings: 1 mM UDP-glucose, Tris-HCl pH 7.0, 37 °C, 0-400 μM acceptor
T1 construct: gene UGT84A56; full-length, MBP or His fusion (pMAL-c2x or pET28a), E. coli, purified

[2] = system: T2, AcUGT92G7; assay: HPLC glucosyltransferase kinetics; assay type: biochemical, Aesculus chinensis; settings: 1 mM UDP-glucose, Tris-HCl pH 7.0, 37 °C, 0-400 μM acceptor
T2 construct: gene UGT92G7; full-length, MBP or His fusion (pMAL-c2x or pET28a), E. coli, purified

`O=c1ccc2cc(O)c(O)cc2o1` [compound 4, esculetin] was tested, and the Km [1] was 177 µM and the Km [2] was 49 µM.
